Assay results from patent publication US7910102B2 (priority 2006, dated 2011).
Entries after “also recorded” stand apart in the source; their conditions may differ. Bridge positions count the residues as written; N and C are the ends. Square brackets hold non-standard residues; d marks the D form. Peptide text beside a SMILES is read from it. 1Nal = N[C@@H](Cc1cccc2ccccc12)C(=O)O

Experiments:
[1] = test system: IL-2 production in human whole blood; assay type: cell-based
CD40L on CD4+ T cells = assay type: cell-based, human
IL-2R on CD4+ T cells = assay type: cell-based, human
[2] = test system: IFN-g production in human whole blood; assay type: cell-based
[3] = test system: T cell proliferation, human PBMCs; test: T cell proliferation (3H-thymidine incorporation) in anti-CD3/anti-CD28 stimulated human PBMCs; assay type: cell-based; conditions: antibodies to CD3 and CD28
Excerpt: Inhibition of T cell proliferation following anti-CD3 and anti-CD28 antibody stimulation of PBMCs. PBMC's were previously isolated from normal human donor Leukophoresis packs, purified by density gradient centrifugation (Ficoll Hypaque), cryopreserved in CPZ Cryopreservation Medium Complete (INCELL, MCPZF-100 plus 10% DMSO final). PBMC's were thawed (95% viability), washed, and seeded at 2×10^5 cells per well in culture medium (RPMI medium 1640; GIBCO) supplemented with 10% fetal calf serum, 100 U/ml penicillin, […] streptomycin, 2 mM L-glutamine, 100 μM non-essential amino acids, and 20 μM 2-ME) in 96-well flat-bottom tissue culture plates. Cells were pre-incubated with either anti-human CD32 (FcyRII) blocking antibody (per manufacturers instructions EASY SEP Human Biotin Selection Kit #18553, StemCell Technologies Vancouver, BC) or Fc-L10-ShK (100 nM-0.001 nM final) for 45 min. Fc-L10-ShK (100 nM-0.001 nM final) was then added to the cells containing anti-human CD32 blocking antibody while medium was added to the cells containing Fc-L10-ShK. Both sets were incubated for an additional 45 min before stimulating for 48 hr with aCD3/aCD28 (0.2 ng/ml and 100 ng/ml, respectively). Final assay volume was 200 ul. […] Cells were then harvested onto glass fiber filters and radioactivity was measured in a B-scintillation counter.

human Kv1.3 [4] = target: T1, human Kv1.3 (Homo sapiens, UniProt P22001); test: Whole cell immunoassay (ELISA) of binding to fixed HEK 293 cells overexpressing Kv1.3; parameters: expressed in transfected cells
T1 sequence (P22001 whole entry): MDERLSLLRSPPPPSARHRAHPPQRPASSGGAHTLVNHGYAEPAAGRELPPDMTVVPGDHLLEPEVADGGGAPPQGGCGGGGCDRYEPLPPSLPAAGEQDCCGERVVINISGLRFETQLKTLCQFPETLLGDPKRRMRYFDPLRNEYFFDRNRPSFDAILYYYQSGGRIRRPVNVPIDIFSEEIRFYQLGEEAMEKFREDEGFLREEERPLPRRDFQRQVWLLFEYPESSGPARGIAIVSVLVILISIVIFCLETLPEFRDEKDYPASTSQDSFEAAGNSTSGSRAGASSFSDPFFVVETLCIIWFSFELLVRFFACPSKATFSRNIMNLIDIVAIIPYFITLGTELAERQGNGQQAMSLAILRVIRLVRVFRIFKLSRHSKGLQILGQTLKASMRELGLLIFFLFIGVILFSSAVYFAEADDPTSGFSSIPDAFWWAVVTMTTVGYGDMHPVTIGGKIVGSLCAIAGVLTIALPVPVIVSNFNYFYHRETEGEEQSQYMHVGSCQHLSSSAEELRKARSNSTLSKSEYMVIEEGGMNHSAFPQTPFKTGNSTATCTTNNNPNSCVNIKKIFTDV
Protocol: Our peptibody reagent can be a useful and convenient tool for monitoring Kv1.3 channel expression in patients and have utility in diagnostic applications. The procedure shown in FIG. 34A and FIG. 34B follows.
FIG. 34A. A whole cell immunoassay was performed to show binding of intact Fc-L10-ShK[1-35] to Kv1.3 transfected HEK 293 cells (BioFocus plc, Cambridge, UK). Parent HEK 293 cells or HEK Kv1.3 cells were plated at 3×10e4 cells/well in poly-D-Lysine coated ninety-six well plates (#35-4461; Becton-Dickinson, Bedford, Mass.). Cells were fixed with formalin (Sigma HT50-1-1 Formalin solution, diluted 1:1 with PBS/0.5% BSA before use) by removing cell growth medium, adding 0.2 ml/well formalin solution and incubating at room temperature for 25 minutes and then washing one time with 100 μl/well of PBS/0.5% BSA. Wells were blocked by addition of 0.3 ml/well of BSA blocker (50-61-00; KPL 10% BSA Diluent/Blocking Solution, diluted 1:1 with PBS; KPL, Gaithersburg, Md.) followed by incubation at room temperature, with shaking, for 3 hr. Plates were washed 2 times with 1×KP Wash Buffer (50-63-00; KPL). […] Absorbance was read at 450 nm on a Molecular Devices SpectroMax 340 (Sunnyvale, Calif.).
FIG. 34B. […] Absorbances were read at 405 nm after stopping reactions by addition of 0.1 ml/well of 1% SDS.

human Kv1.3 [5] = target: T1, human Kv1.3; test: Immunohistochemistry of peptibody binding to HEK 293 cells overexpressing human Kv1.3; parameters: expressed in transfected cells; conditions: 5 μg/ml peptibody
Protocol: Immunohistochemistry analysis of Fc-L10-ShK[1-35] binding to HEK 293 cells overexpressing human Kv1.3. HEK 293 cells overexpressing human Kv1.3 (HEK Kv1.3) were obtained from BioFocus plc (Cambridge, UK) and maintained per manufacturer's recommendation. The parental HEK 293 cell line was used as a control. Cells were plated on Poly-D-Lysine 24 well plates (#35-4414; Becton-Dickinson, Bedford, Mass.) and allowed to grow to approximately 70% confluence. HEK KV1.3 were plated at 0.5×10e5 cells/well in 1 ml/well of medium. HEK 293 cells were plated at a density of 1.5×10e5 cells/well in 1 ml/well of medium. Before staining, cells were fixed with formalin (Sigma HT50-1-1 Formalin solution, diluted 1:1 with PBS/0.5% BSA before use) by removing cell growth medium, adding 0.2 ml/well formalin solution and incubating at room temperature for ten minutes. Cells were stained by incubating with 0.2 ml/well of 5 μg/ml Fc-L10-ShK[1-35] in PBS/BSA for 30′ at room temperature. Fc-L10-ShK[1-35] was aspirated and then the cells were washed one time with PBS/0.5% BSA. Detection antibody (Goat F(ab)2 anti-human IgG-phycoerythrin; Southern Biotech Associates, Birmingham, Ala.) was added to the wells at 5 μg/ml in PBS/0.5% BSA and incubated for 30′ at room temperature. Wash cells once with PBS/0.5% BSA and examine using confocal microscopy (LSM 510 Meta Confocal Microscope; Carl Zeiss AG, Germany). […]

human Kv1.3 [6] = target: T1, human Kv1.3; assay type: cell-based; parameters: expressed in transfected cells
human Kv1.3 [7] = target: T1, human Kv1.3; assay type: cell-based
human Kv1.1 = target: T2, human Kv1.1 (Homo sapiens, UniProt Q09470); assay type: cell-based; conditions: read-out: hKv1.1: IC50
T2 construct: expressed in transfected cells; host or cells: HEK293
T2 sequence (Q09470 whole entry): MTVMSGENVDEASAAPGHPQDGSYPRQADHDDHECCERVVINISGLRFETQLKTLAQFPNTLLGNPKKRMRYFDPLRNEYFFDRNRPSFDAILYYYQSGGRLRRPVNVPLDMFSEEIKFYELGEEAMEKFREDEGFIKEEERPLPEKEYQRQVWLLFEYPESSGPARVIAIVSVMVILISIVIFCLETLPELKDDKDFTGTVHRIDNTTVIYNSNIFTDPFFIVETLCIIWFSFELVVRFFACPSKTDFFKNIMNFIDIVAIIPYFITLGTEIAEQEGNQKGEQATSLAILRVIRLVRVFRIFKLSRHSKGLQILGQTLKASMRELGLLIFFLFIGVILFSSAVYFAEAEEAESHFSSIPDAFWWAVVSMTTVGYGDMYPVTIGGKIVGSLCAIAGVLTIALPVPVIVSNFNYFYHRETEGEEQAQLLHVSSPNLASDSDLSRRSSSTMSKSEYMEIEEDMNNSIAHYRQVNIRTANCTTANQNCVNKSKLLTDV

Compound	block of thapsigargin-induced IL-2 production in human whole blood (in words) [1]	block of thapsigargin-induced upregulation of CD40L on T cells (in words) (CD40L on CD4+ T cells)	block of thapsigargin-induced upregulation of the IL-2R on T cells (in words) (IL-2R on CD4+ T cells)	block of thapsigargin-induced IFN-g production in human whole blood (in words) [2]	also measured
Fc-L10-ShK[2-35]: human IgG1 Fc fused via L10 linker to ShK[2-35]; peptibody	suppressed; also recorded: potently blocked IL-2 secretion	blocked	blocked	suppressed; also recorded: blocked	
Fc-L10-ShK[1-35]: Fc region of human IgG1 fused in-frame to a 10 amino acid linker and the Kv1.3 inhibitor peptide ShK[1-35]; peptibody		suppressed	suppressed		inhibition of T cell proliferation (in words) [3]: inhibits T cell proliferation; also recorded: blocked T cell proliferation; also recorded: potently inhibits proliferation of T cells in a dose-dependent manner; binding to fixed HEK 293 cells overexpressing Kv1.3 (in words) (human Kv1.3 [4]): dose-dependent increase in response; also recorded: high affinity binding to its target; staining of Kv1.3-transfected HEK 293 cells (in words) (human Kv1.3 [5]): stains HEK 293 cells stably transfected with human Kv1.3
iberiotoxin (QFTDVDCSVSKECWSVCKDLFGVDRGKCMGKKCRCYQ; Definition of Artificial Sequence: Synthetic peptide) [IbTx, reference compound]	no significant activity	no significant activity	no significant activity	no significant activity	
CC[C@H](C)[C@@H]1NC(=O)[C@H](CCCCN)NC(=O)[C@@H](NC(=O)[C@H](CCCCN)NC(=O)[C@@H](NC(=O)[C@H](CC(N)=O)NC(=O)[C@@H](NC(=O)[C@@H](NC(=O)[C@@H](NC(=O)CN)C(C)C)[C@@H](C)CC)[C@@H](C)CC)C(C)C)CSSC[C@@H]2NC(=O)[C@H](CCCCN)NC(=O)CNC(=O)[C@H](Cc3ccccc3)NC(=O)[C@H](CCCNC(=N)N)NC(=O)[C@H](CCSC)NC(=O)CNC(=O)[C@H](C)NC(=O)[C@H](Cc3cccc4ccccc34)NC(=O)[C@H](CCCCN)NC(=O)[C@@H]3CSSC[C@@H](C(=O)N[C@H](C(=O)N4CCC[C@H]4C(=O)N[C@@H](CCCCN)C(=O)O)[C@@H](C)O)NC(=O)[C@H](Cc4c[nH]cn4)NC(=O)[C@H](CSSC[C@H](NC(=O)[C@H](CCC(N)=O)NC(=O)[C@H](CCCNC(=N)N)NC(=O)[C@H](CO)NC1=O)C(=O)N[C@@H](CC(C)C)C(=O)N[C@@H](CCC(=O)O)C(=O)N1CCC[C@H]1C(=O)N3)NC(=O)[C@H](CCCCN)NC(=O)CNC(=O)[C@H](CC(N)=O)NC(=O)[C@H](CCSC)NC2=O [K20Nal] (H-GVIINVKCKISRQCLEPCK[1Nal]AGMRFGKCMNGKCHCTPK-OH; disulfide 8-28, 14-33, 18-35)					IC50 ([2]; read-out: Analogue Activity (IC50, pM) WB/IFNg): 12 pM
CC[C@H](C)[C@@H]1NC(=O)[C@H](CCCCN)NC(=O)[C@@H](NC(=O)[C@H](CCCCN)NC(=O)[C@@H](NC(=O)[C@H](CC(N)=O)NC(=O)[C@@H](NC(=O)[C@@H](NC(=O)[C@@H](NC(=O)CN)C(C)C)[C@@H](C)CC)[C@@H](C)CC)C(C)C)CSSC[C@@H]2NC(=O)[C@H](CCCCN)NC(=O)CNC(=O)[C@H](Cc3ccccc3)NC(=O)[C@H](CCCNC(=N)N)NC(=O)[C@H](CCSC)NC(=O)CNC(=O)[C@H](C)NC(=O)[C@H](CCCCN)NC(=O)[C@H](CCCCN)NC(=O)[C@@H]3CSSC[C@@H](C(=O)N[C@H](C(=O)N4CCC[C@H]4C(=O)N[C@@H](CCCCN)C(=O)O)[C@@H](C)O)NC(=O)[C@H](Cc4c[nH]cn4)NC(=O)[C@H](CSSC[C@H](NC(=O)[C@H](CCC(N)=O)NC(=O)[C@H](CCCNC(=N)N)NC(=O)[C@H](CO)NC1=O)C(=O)N[C@@H](CC(C)C)C(=O)N[C@@H](CCC(=O)O)C(=O)N1CCC[C@H]1C(=O)N3)NC(=O)[C@H](CCCCN)NC(=O)CNC(=O)[C@H](CC(N)=O)NC(=O)[C@H](C)NC2=O [OSK1[Ala-29]] (H-GVIINVKCKISRQCLEPCKKAGMRFGKCANGKCHCTPK-OH; disulfide 8-28, 14-33, 18-35)					potency in blocking the cytokine response relative to cyclosporin A (in words) [1]: several orders of magnitude more potent; inhibition of the Kv1.3 current (in words) (human Kv1.3 [6]): potent inhibition of the Kv1.3 current
Fc-L10-OSK1[E16K,K20D]					fold less potent than the synthetic OSK1 toxin peptide (human Kv1.3 [7]): approximately 6 fold; IC50 (human Kv1.1): > 100 nM
